Laboratory results reported in patent US11230579B2, “Method of treating BCL-2 over-expressing disorders using arts containing a BH3-like domain” (CARMEL-HAIFA UNIVERSITY ECONOMIC CORPORATION LTD., priority 2012, dated 2022).
Where two headings read alike, the source gives them in different places. Residues, ends and D or L forms follow the SMILES beside them. *: point of attachment. Cbz = O=C(OCc1ccccc1)*

Legend:
[1] = system: HeLa cells; assay: Induction of apoptosis by ABT-263 (C-PARP, C-Casp3 Western blot); format: cell-based, human
Experimental: (§1) ABT-263 is a Bcl-2 antagonist targeting the BH3 domain and leading to initiation of apoptosis within two hours after treatment. The effect of ABT-263 was studied in HeLa cells and HeLa cells in which ARTS expression was knocked-down using shRNA method (HeLa KD ARTS). HeLa and HeLa KD ARTS cells were treated with different concentrations of ABT-263 at different incubation time points (0, 16 and 24 Hours). Lysates were separated using SDS-PAGE method. To evaluate apoptosis, Western Blot analysis was performed using antibodies recognizing Cleaved-PARP (C-PARP), Cleaved-casp3 (C-Casp3), Bcl-2, ARTS, XIAP and Actin (FIG. 8A).

[2] = system: HeLa KD ARTS cells; assay: Induction of apoptosis by ABT-263 in ARTS knocked-down cells; format: cell-based, human; details: ARTS KD HeLa cells (absence of ARTS)
Experimental: as §1

[3] = system: Bcl-2; assay: IP with anti ARTS Ab after ABT-263 treatment with or without QVD: binding of ARTS to Bcl-2; format: cell-based, human; details: in the presence of QVD
Experimental: Co immunoprecipitation was performed as previously described (Gottfried et al., 2004). Briefly, 10 μg of anti-ARTS antibody or 2 μg of anti-Bcl-2 or anti-XIAP antibody were added to the protein lysate and the samples were left rotating overnight at 4° C. On the following day, agarose beads conjugated to protein A/G (Santa Cruz) were added for 4 h. Samples were centrifuged at 4000 rpm, 4° C. for 5 min and washed three times with PBS. Proteins were eluted from beads following 5 min of boiling in sample buffer and separated on 12.5% SDS-PAGE gel, followed by Western blot analysis.
ABT is a known BH3 mimetics antagonist of Bcl-2 that binds the hydrophobic binding groove in Bcl-2 that includes the BH3 domain. […] Addition of QVD was done to examine whether the binding of ARTS to Bcl-2 occurs before initiation of caspase activation. An IP assay using monoclonal mouse anti ARTS Ab followed by Western Blot was performed by using Bcl-2, ARTS and Actin antibodies.

[4] = system: Bcl-2; details: cited from earlier work
[5] = target: Bcl-XL (Homo sapiens, UniProt Q07817); details: cited from earlier work
Sequence of Bcl-XL (Q07817 whole entry): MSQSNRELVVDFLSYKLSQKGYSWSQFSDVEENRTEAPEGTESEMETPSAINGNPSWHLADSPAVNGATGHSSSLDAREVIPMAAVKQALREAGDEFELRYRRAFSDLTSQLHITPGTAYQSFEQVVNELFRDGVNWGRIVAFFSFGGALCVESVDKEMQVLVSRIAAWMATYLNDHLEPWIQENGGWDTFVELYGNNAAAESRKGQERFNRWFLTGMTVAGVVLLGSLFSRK

[6] = target: T1, Bcl-W (Homo sapiens, UniProt Q92843); details: cited from earlier work
T1 sequence (Q92843 1-193): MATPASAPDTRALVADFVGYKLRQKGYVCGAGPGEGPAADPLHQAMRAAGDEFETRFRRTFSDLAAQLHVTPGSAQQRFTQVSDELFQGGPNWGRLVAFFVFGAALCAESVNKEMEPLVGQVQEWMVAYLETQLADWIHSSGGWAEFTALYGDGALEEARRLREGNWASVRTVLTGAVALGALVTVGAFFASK

[7] = system: small cell lung cancer xenographs, acute lymphoblastic leukemia and hematologic tumors; details: cited from earlier work
[8] = system: solid tumors; details: panel of pediatric tumors; cited from earlier work
[9] = system: acute lymphocytic leukemia; details: panel of pediatric tumors; cited from earlier work
[10] = system: tumor types with an over expression of Mcl-1; details: cited from earlier work
[11] = system: Bcl-2; assay: Over-expression of ARTS in COS-7 cells, Bcl-2 levels by Western blot and densitometry; format: cell-based; details: COS-7 cells transfected with Bcl-2 or Bcl-2 and ARTS, 16 h
From the text: For transient transfections jetPEI™ (Polyplus Transfection) and Transfectol (GeneChoice) reagents were used according to the manufacturers' instructions.
To determine whether ARTS promotes apoptosis by regulating the levels of Bcl-2, the inventors first over-expressed ARTS in COS-7 cells. More specifically, COS-7 cell were transiently transfected with ARTS, Bcl-2 or empty vector or co-transfected with both constructs.

[12] = system: Bcl-2; assay: Myc beads pull-down of ARTS and Bcl-2 in co-transfected COS-7 cells; format: binding; details: COS-7 cells co-transfected with Bcl-2 and ARTS
Experimental: COS-7 cells were co-transfected with different constructs as detailed herein. The cells were lysed in RIPA buffer (150 mM NaCl, 50 mM Tris-HCl (pH 8), 1% NP-40, 0.5% deoxycholate acid containing protease inhibitors (mini Complete, Roche)). The samples were left rotating overnight at 4° C. with the anti-Myc-beads (Santa Cruz). Samples were centrifuged at 4000 rpm, 4° C. for 5 min and washed four times in PBS. Proteins were eluted from beads following 5 min of boiling in sample buffer. Proteins were separate on 12.5% SDS-PAGE gel, followed by Western blot analysis.
The mechanism by which ARTS regulates Bcl-2 levels was further tested using a pull-down assay in COS-7 cells which were co-transfected with Bcl-2 and ARTS expression vectors. Pull-down assays were performed using agarose anti-myc beads followed by Western blot analysis using mouse anti-ARTS and anti-Bcl-2 antibodies.

[13] = system: Bcl-2; details: different cell lines and mouse embryonic fibroblasts (MEFs), Western blot
[14] = system: Bcl-2; assay: Proteasome inhibition in transfected COS-7 cells, Bcl-2 levels; format: cell-based; details: COS-7 cells transfected with Bcl-2 or Bcl-2 and ARTS, 6 h
Experimental: For the proteasome inhibition studies the cells were incubated with MG132 (20 μM) for 6 hours.
COS-7 cells transiently transfected with Bcl-2 or co-transfected with Bcl-2 and ARTS constructs were incubated with a potent proteasome inhibitor MG132 for 6 h to evaluate the effect of the ubiquitin-proteasome system (UPS) on Bcl-2 degradation.

[15] = system: Bcl-2; assay: Functional-structural pull-down assay with anti Bcl2 antibody in transfected HeLa cells; format: binding, human; details: pull-down with Bcl-2 antibodies
Experimental: HeLa cells were transiently transfected with Full length ARTS plasmid and 128 amino acids N′ terminus deletion of ARTS plasmid, for 24 hrs. The cells were extracted using RIPA-SDS lysis buffer. Immunoprecipitation was done by incubation of lysates overnight with anti Bcl2 antibody (BD), followed by precipitation done with protein A/G beads (Santa Cruz). Western blot analysis was performed using monoclonal anti ARTS antibody directed against its unique C terminus (Sigma).
In order to identify the Bcl-2 binding domain in ARTS, the inventors examined whether deletion of different fragments of ARTS, namely, the N-terminal 128 amino-acid residues may have an effect. Therefore, pull-down experiments were performed in HeLa cells transfected with either the full length ARTS or a deletion mutant thereof.

CC1(C)CCC(c2ccc(Cl)cc2)=C(CN2CCN(c3ccc(C(=O)NS(=O)(=O)c4ccc(N[C@H](CCN5CCOCC5)CSc5ccccc5)c(S(=O)(=O)C(F)(F)F)c4)cc3)CC2)C1 [ABT-263, 4-[4-[[2-(4-Chlorophenyl)-5,5-dimethyl-1-cyclohexen-1-yl]methyl]-1-piperazinyl]-N-[[4-[[(1R)-3-(4-morpholinyl)-1-[(phenylthio)methyl]propyl]amino]-3-[(trifluoromethyl)sulfonyl]phenyl]sulfonyl]benzamide]
apoptosis (level of C-PARP and C-Casp3) with increased concentrations [1]: increased apoptosis | apoptosis ([1]; 25 μM for 24H): induction of apoptosis | concentration giving optimal induction of apoptosis ([1]; 24 h): 25 µM | apoptosis (C-PARP and C-Casp3 levels) [2]: not able to induce apoptosis | apoptosis (C-PARP and C-Casp3 levels) ([2]; listed as ABT): lower apoptosis rates | binding of ARTS to Bcl-2 after treatment ([3]; 25 μM, 3 and 24 hours): significant increase in binding of ARTS to Bcl-2 | inhibition of the binding of ARTS to Bcl-2 [3]: fails to inhibit | binding to Bcl-2 [4]: high affinity | binding to Bcl-XL [5]: high affinity | binding to Bcl-W [6]: high affinity | efficacy against tumors [7]: effective | efficacy as a single agent against solid tumors [8]: not effective | efficacy against acute lymphocytic leukemia [9]: highly significant

CN(C)CC[C@H](CSc1ccccc1)Nc1ccc(S(=O)(=O)NC(=O)c2ccc(N3CCN(Cc4ccccc4-c4ccc(Cl)cc4)CC3)cc2)cc1[N+](=O)[O-] [ABT-737, (R)-4-(4-((4′-chloro-[1,1′-biphenyl]-2-yl)methyl)piperazin-1-yl)-N-((4-((4-(dimethylamino)-1-(phenylthio)butan-2-yl)amino)-3-nitrophenyl)sulfonyl)benzamide]
binding to Bcl-2 [4]: high affinity | binding to Bcl-XL [5]: high affinity | binding to Bcl-W [6]: high affinity | effect in tumor types with an over expression of Mcl-1 [10]: no effect

COc1cc([C@@H]2c3cc4c(cc3[C@@H](O[C@@H]3O[C@@H]5CO[C@@H](C)O[C@H]5[C@H](O)[C@H]3O)[C@H]3COC(=O)[C@H]23)OCO4)cc(OC)c1O [Etoposide]
Bcl-2 level on treatment [11]: further reduction of Bcl-2 level | fate of ARTS/Bcl-2 complex upon induction of apoptosis [12]: degraded | Bcl-2 levels upon induction of apoptosis [13]: down regulated

CC(C)C[C@@H](C=O)NC(=O)[C@H](CC(C)C)NC(=O)[C@H](CC(C)C)NC(=O)OCc1ccccc1 [MG132] (Cbz-Leu-Leu-Leu-aldehyde)
Bcl-2 levels during proteasome inactivation [14]: accumulation of Bcl-2 levels

B1: 128aa N′del ARTS: deletion mutant of ARTS lacking the N′ terminal 128 amino acid residues (protein)
chain: MVAGESGLGKSTLVNSLFLTDLYRDRKLLGAEERIMQTVEITKHAVDIEEKGVRLRLTIVDTPGFGDAVNNTECWKPVAEYIDQQFEQYFRDESGLNRKNIQDNRVHCCLYFISPFGHGYGPSLRLLAPPGAVKGTGQEHQGQGCH
binding to Bcl-2 [15]: does not bind to Bcl-2
